Assay results from US6265423A, “Aromatic polycyclic retinoid-type derivatives, method for preparing same, and use thereof for making pharmaceutical and cosmetic compositions” (priority 1996, dated 2001).

Assays:
[1] = test system: T-47D human mammary cancer cells; experiment: MTT test, proliferation of T-47D; format: cell-based; settings: for activity at 100 µM / activity at 1 µM / activity at 0.01 µM: Homo sapiens, T47D, T-47D, 72 h, control = 100%, read-out: level of proliferation; for activity at 100 µM: 10^-4 M; for activity at 1 µM: 10^-6 M; for activity at 0.01 µM: 10^-8 M; for effect on cellular increase, T-47D (in words): MTT test
Experimental: (§1) The cells that were cultured came from the ATCC (American Type Culture Collection).
(§2) The cellular lines are kept in culture in a monolayer at 37° C. in closed culture dishes (Nunc. Gibco BRL, Life Technologies, Belgium) containing the minimum essential medium (MEM, Gibco) supplemented with 5% of Foetal Calf Serum, (FCS, Gibco), 0.6 mg/ml of glutamine (Gibco) and a mixture of 200 IU/mi of penicillin (Gibco), 200 μg/ml of streptomycin (Gibco) and 0.1 mg/ml of gentamycin (Gibco). The foetal calf serum is decomplemented for 1 hour at 56° C.
(§3) This test is based on the mitochondrial reduction by living metabolically active cells of the MTT (3-(4,5-dimethylthiazol-2-yl)-2,5-diphenyltetrazolium bromide) of yellowish colour into a blue coloured product, formazan. The quantity of formazan obtained is directly proportional to the number of living cells. After incubation of the cells for 24 hours in microplates with 96 flat bottomed wells, the culture medium is replaced by 100 μl of fresh culture medium containing the drug to be tested.
(§4) The microplates are then incubated for 3 hours at 37° C. and centrifuged for 10 minutes at 400 g (GPR centrifuge, Beckman). The MTT solution is replaced by 100 μl of dimethylsulphoxide (Merck). The microplates are agitated (Vari-Shaker, Dynatech) for 10 minutes.
(§5) In the microplates, the control cells like the treated cells were incubated in a medium without the compounds to be tested for 24 hours. The control cells are incubated in a medium without a drug throughout the whole experiment, while the treated cells are incubated in different media. These media contain the molecule to be tested at various concentrations: 10^-8 M, 10^-6 M and 10^-4 M. All the tests are carried out in 6 duplicates.
(§6) The statistical comparisons are carried out according to the Fisher Test:
(§7) The mean optical density measured for each experimental condition is expressed as a percentage in relation to the laid down control condition being equal to 100%.

[2] = test system: A549 human pulmonary cancer cells; experiment: MTT test, proliferation of A549; format: cell-based; settings: Homo sapiens, 72 h, control = 100%, read-out: level of proliferation; for activity at 100 µM: A549, 10^-4 M; for activity at 1 µM: A549, 10^-6 M; for activity at 0.01 µM: A549, 10^-8 M
[3] = test system: ZR-75-1 human mammary cancer cells; experiment: MTT test, proliferation of ZR-75-1; format: cell-based; settings: for activity at 100 µM / activity at 1 µM / activity at 0.01 µM: Homo sapiens, 72 h, control = 100%, read-out: level of proliferation; for activity at 100 µM: ZR-75-1, 10^-4 M; for activity at 1 µM: ZR-75-1, 10^-6 M; for activity at 0.01 µM: ZR-75-1, 10^-8 M; for effect on cellular increase, ZR-75-1 (in words): MTT test
Experimental: as §1, §2, §3, §4, §5, §6, §7

[4] = test system: A-427 human pulmonary cancer cells; experiment: MTT test, proliferation of A-427; settings: for activity at 0.01 µM / activity at 1 µM / activity at 100 µM: Homo sapiens, A-427, 72 h, read-out: level of proliferation; for effect on cellular increase, A-427 (in words): MTT test

Row | SMILES | activity at 100 µM [1] [%] | activity at 1 µM [1] [%] | activity at 0.01 µM [1] [%] | activity at 100 µM [2] [%] | activity at 1 µM [2] [%] | activity at 0.01 µM [2] [%] | activity at 100 µM [3] [%] | activity at 1 µM [3] [%] | activity at 0.01 µM [3] [%] | activity at 0.01 µM [4] [%] | activity at 1 µM [4] [%] | activity at 100 µM [4] [%] | effect on cellular increase, T-47D (in words) [1] | effect on cellular increase, ZR-75-1 (in words) [3] | effect on cellular increase, A-427 (in words) [4]
1 | C/C(=C\c1ccc2c(c1)C(C)(C)CCS2)c1ccc(C(=O)O)cc1 [CB12994] | 1.8 | 51.8 | 67.6 | 53.2 | 89 | 92.1 | 31.8 | 126 | 121 | 107 | 93.6 | 4.4 |  |  | 
2 | C/C(=C\c1ccc2c(c1)C(C)(C)CCS2(=O)=O)c1ccc(-c2nnn[nH]2)cc1 [CB15068, (E) 5-[4-[1-(3',4'-dihydro-4'4'-dimethyl-1',1'-dioxide-2'H-1'-benzothiopyran-6'-yl)-2-propenyl]phenyl]-1H-tetrazole] | 32.2 | 87.8 | 101 | 81.8 | 97.3 | 92.7 | 59.3 | 99.9 | 99.2 | 88.5 | 98 | 24.3 | do not influence the cellular increase of the lineages under consideration | do not influence the cellular increase of the lineages under consideration | 
3 | C/C(=C/c1cc2c(cc1C)C(C)(C)CCC2(C)C)c1ccc(C(=O)O)cc1 [CB32706] | 0 | 88.6 | 94 | 6 | 103 | 101 | 0.7 | 93.1 | 95 | 103 | 99.6 | 0.8 |  |  | 
4 | C/C(=C/c1ccc2c(c1)C(C)(C)CCS2(=O)=O)c1ccc(-c2nnn[nH]2)cc1 [CB39122, (Z) 5-[4-[1-(3',4'-dihydro-4',4'-dimethyl-1',1'-dioxide-2'H-1'-benzothiopyran-6'-yl)-2-propenyl]phenyl]-1H-tetrazole] | 57.1 | 100 | 102 | 84.8 | 98 | 96.2 | 74.2 | 97.3 | 102 | 93.9 | 96.5 | 27.1 |  |  | 
5 | C/C(=C\c1ccc2c(c1)C(C)(C)CCS2(=O)=O)c1ccc(C(=O)O)cc1 [CB39356] | 36.4 | 108 | 86 | 72 | 105 | 105 | 59.6 | 148 | 133 | 124 | 129 | 70.7 | do not influence the cellular increase of the lineages under consideration | do not influence the cellular increase of the lineages under consideration | a stimulation of the cellular increase
6 | C/C(=C\c1cc2c(cc1C)C(C)(C)CCC2(C)C)c1ccc(-c2nnn[nH]2)cc1 [CB40747, (E) 5-[4-[1-(5,6,7,8-tetrahydro-3,5,5,8,8-pentamethyl-2-naphthalenyl)-2-propenyl]phenyl]-1H-tetrazole] | 0 | 85.2 | 106 | 0 | 192 | 176 | 0 | 107 | 111 | 100 | 83.7 | 1.7 |  |  | a stimulation of the cellular increase
7 | C/C(=C/c1ccc2c(c1)C(C)(C)CCS2)c1ccc(C(=O)O)cc1 [CB41666] | 28 | 69.5 | 88.7 | 63.2 | 89.9 | 94.5 | 48.5 | 115 | 112 | 83 | 91.2 | 7.6 |  |  | 
8 | Cc1cc2c(cc1/C=C(\c1ccc(C(=O)O)cc1)C(F)(F)F)C(C)(C)CCC2(C)C [CB62899, (E) 4-[1-trifluoromethyl-2-(5,6,7,8-tetrahydro-3,5,5,8,8-pentamethyl-2-naphthalenyl)-1-ethenyl]benzoic acid] | 1.7 | 73.7 | 128 | 0.45 | 119 | 131 | 0.4 | 112 | 112 | 115 | 124 | 0 |  |  | 
9 | Cc1cc2c(cc1/C=C(\c1ccc(-c3nnn[nH]3)cc1)C(F)(F)F)C(C)(C)CCC2(C)C [CB63237, (E) 5-[4-[1-trifluoromethyl-2-(5,6,7,8-tetrahydro-3,5,5,8,8-pentamethyl-2-naphthalenyl)-1-ethenyl]phenyl]-1H-tetrazole] | 4.1 | 125 | 120 | 2.1 | 140 | 124 | 0 | 106 | 86.5 | 88.1 | 148 | 4.1 |  |  | 
10 | CCCCCCCOc1cc2c(cc1/C(C)=C/c1ccc(C(=O)O)cc1)C(C)(C)CCS2(=O)=O [CB65757] | 0 | 126 | 124 | 0 | 111 | 108 | 1 | 118 | 116 | 106 | 146 | 0 |  |  | 
11 | C=C(c1ccc(C(=O)Nc2ccc(O)cc2)cc1)c1cc2c(cc1C)C(C)(C)CCC2(C)C [CB65801] | 1.6 | 62.7 | 92.8 |  |  |  | 0.2 | 93.4 | 138 |  |  |  |  |  | 
12 | C/C(=C/c1ccc2c(c1)C(C)(C)CCS2(=O)=O)c1ccc(C(=O)O)cc1 [CB72484] | 99 | 128 | 129 | 129 | 111 | 114 | 129 | 138 | 145 | 131 | 130 | 182 |  |  | 
13 | COc1cc2c(cc1/C(C)=C/c1ccc(C(=O)O)cc1)C(C)(C)CCS2(=O)=O [CB77787] | 86.3 | 120 | 129 | 103 | 125 | 118 | 93.5 | 113 | 114 | 120 | 110 | 163 |  |  | 
14 | Cc1cc2c(cc1C(=O)c1ccc(C(=O)Nc3ccc(O)cc3)cc1)C(C)(C)CCC2(C)C [CB81616] | 1.4 | 96.7 | 103 |  |  |  | 0 | 134 | 136 |  |  |  |  |  | 
